Source: ChEMBL document CHEMBL1146948, “Synthesis and biological activity of diaryl ether inhibitors of malarial enoyl acyl carrier protein reductase. Part 2: 2'-substituted triclosan derivatives” (Bioorg Med Chem Lett, 2006)

Assays:
Plasmodium falciparum [1] = assay: Antimalarial activity against Plasmodium falciparum 3D7; format: functional, organism-based
[2] = molecular target: T1, Enoyl-acyl-carrier protein reductase (Plasmodium falciparum, UniProt Q965D5); assay: Inhibition of Plasmodium falciparum ENR enzymatic activity
T1 sequence (Q965D5 whole entry): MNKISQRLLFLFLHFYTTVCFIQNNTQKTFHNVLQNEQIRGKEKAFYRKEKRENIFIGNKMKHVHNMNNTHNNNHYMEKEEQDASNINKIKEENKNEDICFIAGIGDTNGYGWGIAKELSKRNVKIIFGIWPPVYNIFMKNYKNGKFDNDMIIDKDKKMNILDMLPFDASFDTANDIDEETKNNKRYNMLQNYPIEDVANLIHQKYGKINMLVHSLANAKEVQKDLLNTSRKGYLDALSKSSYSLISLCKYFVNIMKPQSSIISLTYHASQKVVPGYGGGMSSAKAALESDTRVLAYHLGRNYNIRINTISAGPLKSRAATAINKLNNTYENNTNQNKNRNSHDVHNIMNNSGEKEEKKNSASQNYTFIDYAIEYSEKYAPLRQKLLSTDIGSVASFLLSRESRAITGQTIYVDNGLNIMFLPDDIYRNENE

Plasmodium falciparum [3] = assay: Antimalarial activity against Plasmodium falciparum Dd2; format: functional, organism-based

Row | SMILES | EC50 (Plasmodium falciparum [1]) [µM] | IC50 [2] [µM] | EC50 (Plasmodium falciparum [3]) [µM]
1 | Oc1cc(Cl)ccc1Oc1ccc(Cl)cc1CN1CCN(Cc2ccccc2)CC1 | 0.63 | 11 | 0.62
2 | CC(C)(NCc1ccc(Cl)cc1)c1cc(Cl)ccc1Oc1ccc(Cl)cc1O | 0.41 | 7.2 | 0.35
3 | Oc1cc(Cl)ccc1Oc1ccccc1CNc1cccc2ccccc12 | 0.3 | 11 | 0.37
4 | Oc1cc(Cl)ccc1Oc1ccc(Cl)cc1CNCc1ccc(Cl)cc1 | 0.32 | 7.2 | 0.27
5 | NCc1ccccc1Oc1ccc(Cl)cc1O | 9.7 | > 50 | 7.2
6 | NCc1cc(Cl)ccc1Oc1ccc(Cl)cc1O | 2.7 | > 50 | 2
7 | Oc1cc(Cl)ccc1Oc1ccc(Cl)cc1CN1CCN(C(c2ccccc2)c2ccccc2)CC1 | 2.1 | > 50 | 1.4
8 | CN(Cc1ccc(Cl)cc1)Cc1cc(Cl)ccc1Oc1ccc(Cl)cc1O | 0.25 | 22 | 0.19
9 | Oc1cc(Cl)ccc1Oc1ccc(Cl)cc1CN1CCCC1 | 0.5 | > 50 | 0.45
10 | Nc1ccccc1Oc1ccc(Cl)cc1O | 83 | 7 | 140
11 | Oc1cc(Cl)ccc1Oc1ccccc1CNCCCc1ccccc1 | 0.32 | 19 | 0.39
12 | Oc1cc(Cl)ccc1Oc1ccc(Cl)cc1CN1CCCCC1 | 0.73 | > 50 | 0.48
13 | Oc1cc(Cl)ccc1Oc1ccccc1CNc1ccc2ccccc2c1 | 0.45 | 46 | 0.33
14 | COc1cc(Cl)ccc1Oc1ccccc1CNCc1ccc(Cl)cc1 | 19 | > 50 | 24
15 | Oc1cc(Cl)ccc1Oc1ccccc1CNCCc1ccccc1 | 0.78 | 2.5 | 0.75
16 | CC(=O)N(Cc1ccc(Cl)cc1)Cc1cc(Cl)ccc1Oc1ccc(Cl)cc1O | 3.5 | 28 | 5.9
17 | CN(C)Cc1cc(Cl)ccc1Oc1ccc(Cl)cc1O | 0.18 | 19 | 0.22
18 | CN(Cc1ccc(Cl)cc1)C(C)(C)c1cc(Cl)ccc1Oc1ccc(Cl)cc1O | 0.14 | 27 | 0.38
19 | Oc1cc(Cl)ccc1Oc1ccc(Cl)cc1CNCc1ccc2c(c1)CCO2 | 0.18 | 9 | 0.11
20 | Oc1cc(Cl)ccc1Oc1ccccc1CNCc1ccccc1 | 0.49 | 10 | 0.42

Results, then the compound that gave them:

Row | EC50 (Plasmodium falciparum [1]) [µM] | IC50 [2] [µM] | EC50 (Plasmodium falciparum [3]) [µM] | SMILES
21 | 0.77 | 3.3 | 0.83 | Oc1cc(Cl)ccc1Oc1ccc(Cl)cc1CNCc1ccccc1
22 | 2.6 | > 50 | 2.2 | Oc1cc(Cl)ccc1Oc1ccc(Cl)cc1CNc1cccc2ccccc12
23 | 0.23 | 35 | 0.15 | Oc1cc(Cl)ccc1Oc1ccc(Cl)cc1CNCc1ccc(-c2ccccc2)cc1
24 | 11 | 15 | 17 | O=S(=O)(NCc1cc(Cl)ccc1Oc1ccc(Cl)cc1O)c1ccccc1
25 | 0.21 | 26 | 0.14 | Oc1cc(Cl)ccc1Oc1ccc(Cl)cc1CNc1ccc2ccccc2c1
26 | 0.33 | 35 | 0.3 | Oc1cc(Cl)ccc1Oc1ccccc1CNCc1ccc(Cl)cc1
27 | 0.58 | 27 | 0.47 | CNCc1cc(Cl)ccc1Oc1ccc(Cl)cc1O
28 | 8.6 | 18 | 12 | O=C(NCc1cc(Cl)ccc1Oc1ccc(Cl)cc1O)c1ccccc1
29 | 14 | 6.1 | 15 | Oc1cc(Cl)ccc1Oc1ccc(Cl)cc1CN1CCN(c2ccccc2)CC1
